Test results as given in patent publication US5936097A, “4,9-ethano-benzo(F)isoindole derivatives as farnesyl transferase inhibitors” (Rhone-Poulenc Rorer, S.A., priority 1995, dated 1999).
Counter-ions that a name gives are not always drawn.

The molecules below were run against T1, human farnesyl transferase (Homo sapiens, UniProt P49354+P49356) (assay: inhibition of farnesyl transferase ((3H) farnesyl transfer from (3H) FPP to p21 H-ras)). Settings: not given.
T1 construct: human farnesyl transferase purified from THP1 cell cultures; endogenous in cells; host or cells: THP1 cell cultures (enzyme purified from the cells)
Format: biochemical
Procedure, shortened: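 Radiometric transfer of [3H]farnesyl from 4.5 pmol [3H]FPP to 200 pmol p21 H-ras by ~5 ng human enzyme purified from THP1 cells, in 50 mM Tris-HCl, 5 mM MgCl2, 5 mM DTT, 0.2% octyl glucoside, 20 min at 37 °C. Protein precipitated with SDS/TCA in methanol, filter-bound counts measured; IC50 from 9 concentrations, triplicate.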

Structure (SMILES)	IC50 [µM]
CSc1ccccc1CC(=O)N1CC2C3(c4ccccc4)CCC(c4ccccc43)C2(C(=O)O)C1 (single isomer, unassigned) [Example 31]	0.62
COc1ccccc1[C@@H](C)C(=O)N1CC2C3(c4ccccc4)CCC(c4ccccc43)C2(C(=O)O)C1 (single isomer, unassigned) [Example 33]	2.03
COc1ccccc1[C@H](C)C(=O)N1CC2C3(c4ccccc4)CCC(c4ccccc43)C2(C(=O)O)C1 (single isomer, unassigned) [Example 34]	0.59
COc1ccccc1CC(=O)N1C[C@H]2[C@@]3(c4ccccc4)CC[C@H](c4ccccc43)[C@@]2(C(=O)O)C1 [Example 47, 4,9-ethano-2-[(2-methoxyphenyl)acetyl]-9-phenyl-2,3,3a(S),4(R),9(R),9a(S)-hexahydro-1H-benzo[f]isoindole-3a-carboxylic acid]	0.14
CCOc1ccccc1CC(=O)N1C[C@H]2[C@@]3(c4ccccc4)CC[C@H](c4ccccc43)[C@@]2(C(=O)O)C1 [Example 75]	0.37

Same assay, conditions: human farnesyl transferase purified from THP1 cell cultures; p21 H-ras substrate; 20 minutes at 37° C.; 9 concentrations; read-out: in vitro inhibitory activity IC50

Structure (SMILES)	IC50 [µM]
CCCOc1ccccc1CC(=O)N1C[C@H]2[C@@]3(c4ccccc4)CC[C@H](c4ccccc43)[C@@]2(C(=O)O)C1 (relative stereo) [Example 80, (3aRS,4SR,9SR,9aRS)-4,9-ethano-9-phenyl-2-(2-n-propoxyphenyl)acetyl-2,3,3a,4,9,9a-hexahydro-1H-benzo[f]isoindole-3a-carboxylic acid]	0.8
COC(=O)[C@]12CN(C(=O)Cc3ccccc3OC)C[C@H]1[C@@]1(c3ccccc3)CC[C@@H]2c2cc(C=O)ccc21 (relative stereo) [Example 97, methyl ester of (3aRS,4SR,9SR,9aRS)-4,9-ethano-6-formyl-2-[(2-methoxyphenyl)acetyl]-9-phenyl-2,3,3a,4,9,9a-hexahydro-1H-benzo[f]isoindole-3a-carboxylic acid]	3.95
C=C(C(=O)N1CC2C3(c4ccccc4)CCC(c4ccccc43)C2(C(=O)N[C@H](C)c2ccccc2)C1)c1ccccc1OC (single isomer, unassigned) [Example 9]	0.19
COc1ccccc1CC(=O)N1C[C@H]2[C@@]3(c4ccccc4)CC[C@H](c4ccccc43)[C@@]2(C(=O)NC(CC(=O)O)C(=O)O)C1 (stereo partly drawn) [Example 6, N-[(3aRS, 4SR, 9SR, 9aRS)-4,9-ethano-2-(2-methoxyphenyl)acetyl-9-phenyl-2,3,3a,4,9,9a-hexahydro-1H-benzo[f]isoindolyl-3a-carbonyl]aspartic acid]	1.1
COc1ccccc1CC(=O)N1C[C@H]2[C@@]3(c4ccccc4)CC[C@H](c4ccccc43)[C@@]2(C(=O)NC(CCC(=O)O)C(=O)O)C1 (stereo partly drawn) [Example 7]	0.58
COc1ccccc1CC(=O)N1C[C@H]2[C@@]3(c4ccccc4)CC[C@H](c4ccccc43)[C@@]2(C(=O)NC(Cc2c[nH]cn2)C(=O)O)C1 (stereo partly drawn) [Example 8, hydrochloride of N-[(3aRS, 4SR, 9SR, 9aRS)-4,9-ethano-2-(2-methoxyphenyl)acetyl-9-phenyl-2,3,3a,4,9,9a-hexahydro-1H-benzo[f]isoindolyl-3a-carbonyl]histidine]	0.19
COc1ccccc1CC(=O)N1C[C@H]2[C@@]3(c4ccccc4)CC[C@H](c4ccccc43)[C@@]2(NC(=O)C(N)CCSC)C1 (stereo partly drawn) [Example 13, (3aRS, 4SR, 9SR, 9aRS)-3a-methionylamino-4,9-ethano-2-(2-methoxyphenyl)acetyl-9-phenyl-2,3,3a,4,9,9a-hexahydro-1H-benzo[f]isoindole]	8.8
COc1ccccc1CC(=O)N1C[C@H]2[C@@]3(c4ccccc4)CC[C@H](c4ccccc43)[C@@]2(NC(=O)C(CO)NC(=O)OC(C)(C)C)C1 (stereo partly drawn) [Example 14]	8.7
COc1ccccc1CC(=O)N1C[C@H]2[C@@]3(c4ccccc4)CC[C@H](c4ccccc43)[C@@]2(CC(=O)NC(CCSC)C(=O)O)C1 (stereo partly drawn) [Example 21, N-[(3aRS, 4SR, 9SR, 9aRS)-4,9-ethano-2-(2-methoxyphenyl)acetyl-9-phenyl-2,3,3a,4,9,9a-hexahydro-1H-benzo[f]isoindole-3a-yl]acetylmethionine]	3.75
C=C(C(=O)N1C[C@H]2[C@@]3(c4ccccc4)CC[C@H](c4ccccc43)[C@@]2(C(=O)O)C1)c1ccccc1OC [Example 39, (3aS,4R,9R,9aS)-4,9-ethano-2-[2-(2-methoxyphenyl)prop-2-en-1-oyl]-9-phenyl-1,2,3,3a,9,9a-hexahydro-1H-benzo[f]isoindole-3a-carboxylic acid]	0.05
COc1ccccc1CC(=O)N1C[C@H]2[C@@]3(c4ccccc4)CC[C@H](c4ccccc43)[C@@]2(C(=O)NCC(=O)O)C1 [Example 48, N-[4,9-ethano-2-(2-methoxyphenyl)acetyl-9-phenyl-2,3,3a(S),4(R),9(R),9a(S)-hexahydro-1H-benzo[f]isoindol-3a-yl]carbonylglycine]	0.74
COc1ccccc1CC(=O)N1CC2C3(c4ccccc4)CCC(c4ccccc43)C2(C(=O)N[C@@H](CCSC)C(=O)O)C1 (stereo partly drawn) [Example 51, N-[(3aRS,4SR,9SR,9aRS)-4,9-ethano-2-(2-methoxy-phenyl)acetyl-9-phenyl-2,3,3a,4,9,9a-hexahydro-1H-benzo[f]isoindol-3a-yl]carbonyl-L-methionine]	0.15
COc1ccccc1CC(=O)N1CC2C3(c4ccccc4)CCC(c4ccccc43)C2(C(=O)N[C@@H](CSCc2ccccc2)C(=O)O)C1 (stereo partly drawn) [Example 52, N-[(3aRS,4SR,9SR,9aRS)-4,9-ethano-2-(2-methoxyphenyl)acetyl-9-phenyl-2,3,3a,4,9,9a-hexahydro-1H-benzo[f]isoindol-3a-yl]carbonyl-S-benzyl-L-cysteine]	0.44
COc1ccccc1CC(=O)N1CC2C3(c4ccccc4)CCC(c4ccccc43)C2(C(=O)N[C@@H](CS)C(=O)O)C1 (stereo partly drawn) [Example 53, N-[(3aRS,4SR,9SR,9aRS)-4,9-ethano-2-(2-methoxyphenyl)acetyl-9-phenyl-2,3,3a,4,9,9a-hexahydro-1H-benzo[f]isoindol-3a-yl]carbonyl-L-cysteine]	0.59
COc1ccccc1CC(=O)N1C[C@H]2[C@@]3(c4ccccc4)CC[C@H](c4ccccc43)[C@@]2(C(=O)N[C@H](C)c2ccccc2)C1 [Example 57, N-[(R)-1-phenylethyl]-4,9-ethano-2-(2-methoxyphenyl)acetyl-9-phenyl-2,3,3a(S),4(R),9(R),9a(S)-hexahydro-1H-benzo[f]isoindole-3a-carboxamide]	0.86
C=C(C(=O)N1C[C@H]2[C@@]3(c4ccccc4)CC[C@H](c4ccccc43)[C@@]2(C(=O)NCc2ccccc2)C1)c1ccccc1OC [Example 71]	0.5
C=C(C(=O)N1C[C@H]2[C@@]3(c4ccccc4)CC[C@H](c4ccccc43)[C@@]2(C(=O)N[C@H](C(=O)OC)c2ccccc2)C1)c1ccccc1OC [Example 72]	0.69
C=C(C(=O)N1C[C@H]2[C@@]3(c4ccccc4)CC[C@H](c4ccccc43)[C@@]2(C(=O)N[C@H](C(=O)O)c2ccccc2)C1)c1ccccc1OC [Example 81, N-[(3aS,4R,9R,9aS)-4,9-ethano-2-[(2-methoxy-phenyl)prop-2-en-1-oyl]-9-phenyl-2,3,3a,4,9,9a-hexahydro-1H-benzo[f]isoindol-3a-ylcarboxamide]-(S)-phenylglycine]	0.05
C=C(C(=O)N1C[C@H]2[C@@]3(c4ccccc4)CC[C@H](c4ccccc43)[C@@]2(C(=O)NCc2ccccc2OC)C1)c1ccccc1OC [Example 82]	0.21
